Measurements reported in US9018388B2, “Pesticidal compositions and processes related thereto” (Dow AgroSciences LLC, priority 2012, dated 2015).

How the values were obtained:
[1] = tested on: Beet Armyworm (BAW) (Spodoptera exigua); experiment: Bioassay on beet armyworm (BAW), 128-well diet tray assay; type: in vivo; conditions: Spodoptera exigua; Beet armyworm, 50 μg/cm^2; read-out: % Mortality BAW 50 μg/cm^2
Summary of the method: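 Second-instar Spodoptera exigua larvae, one to five per well, on artificial diet treated with 50 μg/cm^2 compound in 90:10 acetone-water and dried, eight wells per compound. Held at 25 °C, 14:10 light-dark for five to seven days; percent mortality averaged over wells.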

[2] = tested on: Corn Earworm (CEW) (Helicoverpa zea); experiment: Bioassay on corn earworm (CEW), 128-well diet tray assay; type: in vivo; conditions: Helicoverpa zea; Corn earworm, 50 μg/cm^2; read-out: % Mortality CEW 50 μg/cm^2
Summary of the method: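 Second-instar Helicoverpa zea larvae (one to five per well) placed on artificial diet treated with 50 μg/cm^2 compound in 90:10 acetone-water, dried, eight wells per compound. Held at 25 °C, 14:10 light-dark, five to seven days; percent mortality averaged over wells.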

SMILES	pest or weed control at 50 µg/cm2, 50 µg/cm2 [1] [%]	pest or weed control at 50 µg/cm2, 50 µg/cm2 [2] [%]
CC1S/C(=N\N=C\c2ccc(-c3ncn(-c4ccc(OC(F)(F)F)cc4)n3)cc2)N(c2ccccc2C2CC2)C1=O (centres unmarked) [Compound 127C]	50 to 100	50 to 100
Cc1cccc(C)c1/N=C(/N/N=C/c1ccc(-c2ncn(-c3ccc(OC(F)(F)F)cc3)n2)cc1)SCOC(=O)C(C)(C)C [Compound 36C]	50 to 100	50 to 100
CC(C)c1ccc(F)cc1N1CS/C1=N\N=C\c1ccc(-c2ncn(-c3ccc(C(C)(F)F)cc3)n2)cc1 [Compound 259C]	50 to 100	50 to 100
O=C1CS/C(=N\N=C\c2ccc(-c3ncn(-c4ccc(OC(F)(F)F)cc4)n3)cc2)N1c1ccccc1Cl [Compound 106C]	50 to 100	50 to 100
CC(C)(C)c1ccccc1N1CCCS/C1=N\N=C\c1ccc(-c2ncn(-c3ccc(OC(F)(F)F)cc3)n2)cc1 [Compound 210C]	50 to 100	50 to 100
CC(C)c1cc(F)ccc1N1CS/C1=N\N=C\c1ccc(-c2ncn(-c3ccc(C(F)(F)F)cc3)n2)cc1 [Compound 261C]	50 to 100	50 to 100
COc1cc(C)c(N2C(=O)CS/C2=N\N=C\c2ccc(-c3ncn(-c4ccc(OC(F)(F)F)cc4)n3)cc2)c(C)n1 [Compound 101C]	50 to 100	50 to 100
Cc1cccc(Cl)c1N1CS/C1=N\N=C\c1ccc(-c2ncn(-c3ccc(OC(F)(F)F)cc3)n2)cc1 [Compound 246C]	50 to 100	50 to 100
CCN(CC)c1ccc(-c2cs/c(=N\N=C\c3ccc(-c4ncn(-c5ccc(OC(F)(F)F)cc5)n4)cc3)n2-c2c(C)cccc2C)cc1 [Compound 74C]	50 to 100	50 to 100
CCC(C)c1ccccc1N1CCS/C1=N\N=C\c1ccc(-c2ncn(-c3ccc(OC(F)(F)F)cc3)n2)cc1 (centres unmarked) [Compound 135C]	50 to 100	50 to 100
CC1CS/C(=N\N=C\c2ccc(-c3ncn(-c4ccc(OC(F)(F)F)cc4)n3)cc2)N(c2c(Cl)cccc2C(F)(F)F)C1 (centres unmarked) [Compound 215C]	50 to 100	50 to 100
CCc1ccccc1N1CCCS/C1=N\N=C\c1ccc(-c2ncn(-c3ccc(OC(F)(F)F)cc3)n2)cc1 [Compound 185C]	50 to 100	50 to 100
CC1CS/C(=N\N=C\c2ccc(-c3ncn(-c4ccc(OC(F)(F)F)cc4)n3)cc2)N1c1ccccc1OC(F)F (centres unmarked) [Compound 164C]	50 to 100	50 to 100
COc1cc(C)c(-n2c(C)cs/c2=N\N=C\c2ccc(-c3ncn(-c4ccc(OC(F)(F)F)cc4)n3)cc2)c(C)c1 [Compound 172C]	50 to 100	50 to 100
O=C1CCS/C(=N\N=C\c2ccc(-c3ncn(-c4ccc(OC(F)(F)F)cc4)n3)cc2)N1c1ccccc1OC(F)F [Compound 233C]	50 to 100	50 to 100
CC(C)c1ccc(F)cc1N1CS/C1=N\N=C\c1ccc(-c2ncn(-c3ccc(C(F)(C(F)(F)F)C(F)(F)C(F)(F)F)cc3)n2)cc1 (centres unmarked) [Compound 258C]	0 to 50	50 to 100
Cc1ccccc1N1C(=O)CS/C1=N\N=C\c1ccc(-c2ncn(-c3ccc(OC(F)(F)F)cc3)n2)cc1 [Compound 113C]	50 to 100	50 to 100
O=C1CS/C(=N\N=C\c2ccc(-c3cn(-c4ccc(OC(F)(F)F)cc4)cn3)cc2)N1c1c(Cl)cccc1Cl [Compound 102C]	50 to 100	50 to 100
Cc1cc(Cl)cc(C)c1N1C(=O)CS/C1=N\N=C\c1ccc(-c2ncn(-c3ccc(OC(F)(F)F)cc3)n2)cc1 [Compound 105C]	50 to 100	50 to 100
CC1CCS/C(=N\N=C\c2ccc(-c3ncn(-c4ccc(OC(F)(F)F)cc4)n3)cc2)N1c1ccccc1OC(F)(F)F (centres unmarked) [Compound 216C]	50 to 100	50 to 100
COCOCC(C)C(=O)OCS/C(=N\c1c(C)cc(OC)cc1C)N/N=C/c1ccc(-c2ncn(-c3ccc(OC(F)(F)F)cc3)n2)cc1 (centres unmarked) [Compound 42C]	50 to 100	50 to 100
Cc1cccc(C)c1N1CCCCS/C1=N\N=C\c1ccc(-c2ncn(-c3ccc(OC(F)(F)F)cc3)n2)cc1 [Compound 211C]	50 to 100	50 to 100
